Holding throughout (format): biochemical
In one assay the target is T1, Lck (Homo sapiens, UniProt P06239).
T1 construct: Kinases are expressed as either kinase domains or full length constructs; made in house
Nature of the assay: Kinase inhibition assay (33P transfer), Lck. Conditions: Table 3; read-out: Lck-1. In a few lines: (§1)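 Kinase domain or full-length constructs, GST- or polyHis-tagged, expressed in E. coli or baculovirus-High Five cells, sometimes with regulatory polypeptides. Activity measured as 33PO4 transfer from ATP to plate-bound poly(Glu,Tyr) 4:1 or poly(Arg,Ser) 3:1; after incubation, plates washed with 0.5% phosphoric acid and counted by liquid scintillation.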

The target in a further assay is T2, Lyn (Homo sapiens, UniProt P07948).
T2 construct: Kinases are expressed as either kinase domains or full length constructs; made in house
T2 sequence (P07948 whole entry, species assumed, the tested form may be a part): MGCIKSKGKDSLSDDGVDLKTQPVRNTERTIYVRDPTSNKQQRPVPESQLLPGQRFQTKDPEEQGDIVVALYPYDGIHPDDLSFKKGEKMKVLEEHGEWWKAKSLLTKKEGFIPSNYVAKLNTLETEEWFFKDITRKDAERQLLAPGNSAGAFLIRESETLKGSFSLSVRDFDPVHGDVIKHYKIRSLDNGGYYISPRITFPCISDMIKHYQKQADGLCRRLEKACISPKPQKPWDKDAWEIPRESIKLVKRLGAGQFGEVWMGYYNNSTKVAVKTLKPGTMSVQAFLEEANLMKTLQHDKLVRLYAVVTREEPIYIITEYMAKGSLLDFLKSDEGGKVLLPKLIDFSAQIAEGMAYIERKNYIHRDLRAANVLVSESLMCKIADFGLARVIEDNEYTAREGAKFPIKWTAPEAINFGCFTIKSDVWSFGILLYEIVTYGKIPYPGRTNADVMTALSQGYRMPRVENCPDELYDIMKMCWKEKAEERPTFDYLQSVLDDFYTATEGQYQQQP
Description: Kinase inhibition assay (33P transfer), Lyn. The conditions noted are these: Table 6, Lyn-1 kinase inhibition class. An outline of the steps:
(§2)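 Using immobilised substrate copolymers (poly(Glu,Tyr) 4:1; poly(Arg,Ser) 3:1) and [33P]ATP, purified fusion kinases were allowed to react; plates were then rinsed in 0.5% phosphoric acid and counted in a scintillation detector. Half-maximal inhibition of label transfer defines IC50.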

The next assay addresses T3, Zap-70 (Homo sapiens, UniProt P43403).
T3 construct: Kinases are expressed as either kinase domains or full length constructs; made in house
T3 sequence (P43403 1-619): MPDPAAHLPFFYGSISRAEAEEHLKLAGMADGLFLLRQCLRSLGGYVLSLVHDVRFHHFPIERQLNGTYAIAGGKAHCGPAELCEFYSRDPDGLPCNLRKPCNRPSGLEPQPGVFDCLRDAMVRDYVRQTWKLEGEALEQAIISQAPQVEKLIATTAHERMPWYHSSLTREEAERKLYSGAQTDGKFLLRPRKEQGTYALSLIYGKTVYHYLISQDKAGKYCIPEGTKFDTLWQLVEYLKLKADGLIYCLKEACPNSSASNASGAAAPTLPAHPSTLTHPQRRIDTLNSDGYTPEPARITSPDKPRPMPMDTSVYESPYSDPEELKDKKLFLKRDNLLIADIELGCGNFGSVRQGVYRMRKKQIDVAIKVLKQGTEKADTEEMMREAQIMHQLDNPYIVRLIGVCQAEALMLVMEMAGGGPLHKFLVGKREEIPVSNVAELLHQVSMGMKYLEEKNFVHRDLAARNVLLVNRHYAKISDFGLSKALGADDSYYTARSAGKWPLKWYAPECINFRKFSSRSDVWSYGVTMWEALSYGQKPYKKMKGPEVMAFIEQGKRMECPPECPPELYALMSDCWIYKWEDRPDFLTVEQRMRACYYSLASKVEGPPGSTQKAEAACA
Nature of the assay: Kinase inhibition assay (33P transfer), Zap-70. Conditions: Table 3; read-out: Zap-1. In a few lines:
as §1

Another assay concerns the target T4, Kdr (Homo sapiens, UniProt P35968).
T4 construct: Kinases are expressed as either kinase domains or full length constructs; made in house
Nature of the assay: Kinase inhibition assay (33P transfer), Kdr. The conditions noted are these: Table 3; read-out: KDR-1. An outline of the steps:
as §1

The target in a further assay is T5, Flt-1 (Homo sapiens, UniProt P17948).
T5 construct: Kinases are expressed as either kinase domains or full length constructs; made in house
Description: Kinase inhibition assay (33P transfer), Flt-1. In a few lines: as §2

For a further assay, the target named is T6, c-Met (Homo sapiens, UniProt P08581).
T6 construct: Kinases are expressed as either kinase domains or full length constructs; made in house
T6 sequence (P08581 25-1390): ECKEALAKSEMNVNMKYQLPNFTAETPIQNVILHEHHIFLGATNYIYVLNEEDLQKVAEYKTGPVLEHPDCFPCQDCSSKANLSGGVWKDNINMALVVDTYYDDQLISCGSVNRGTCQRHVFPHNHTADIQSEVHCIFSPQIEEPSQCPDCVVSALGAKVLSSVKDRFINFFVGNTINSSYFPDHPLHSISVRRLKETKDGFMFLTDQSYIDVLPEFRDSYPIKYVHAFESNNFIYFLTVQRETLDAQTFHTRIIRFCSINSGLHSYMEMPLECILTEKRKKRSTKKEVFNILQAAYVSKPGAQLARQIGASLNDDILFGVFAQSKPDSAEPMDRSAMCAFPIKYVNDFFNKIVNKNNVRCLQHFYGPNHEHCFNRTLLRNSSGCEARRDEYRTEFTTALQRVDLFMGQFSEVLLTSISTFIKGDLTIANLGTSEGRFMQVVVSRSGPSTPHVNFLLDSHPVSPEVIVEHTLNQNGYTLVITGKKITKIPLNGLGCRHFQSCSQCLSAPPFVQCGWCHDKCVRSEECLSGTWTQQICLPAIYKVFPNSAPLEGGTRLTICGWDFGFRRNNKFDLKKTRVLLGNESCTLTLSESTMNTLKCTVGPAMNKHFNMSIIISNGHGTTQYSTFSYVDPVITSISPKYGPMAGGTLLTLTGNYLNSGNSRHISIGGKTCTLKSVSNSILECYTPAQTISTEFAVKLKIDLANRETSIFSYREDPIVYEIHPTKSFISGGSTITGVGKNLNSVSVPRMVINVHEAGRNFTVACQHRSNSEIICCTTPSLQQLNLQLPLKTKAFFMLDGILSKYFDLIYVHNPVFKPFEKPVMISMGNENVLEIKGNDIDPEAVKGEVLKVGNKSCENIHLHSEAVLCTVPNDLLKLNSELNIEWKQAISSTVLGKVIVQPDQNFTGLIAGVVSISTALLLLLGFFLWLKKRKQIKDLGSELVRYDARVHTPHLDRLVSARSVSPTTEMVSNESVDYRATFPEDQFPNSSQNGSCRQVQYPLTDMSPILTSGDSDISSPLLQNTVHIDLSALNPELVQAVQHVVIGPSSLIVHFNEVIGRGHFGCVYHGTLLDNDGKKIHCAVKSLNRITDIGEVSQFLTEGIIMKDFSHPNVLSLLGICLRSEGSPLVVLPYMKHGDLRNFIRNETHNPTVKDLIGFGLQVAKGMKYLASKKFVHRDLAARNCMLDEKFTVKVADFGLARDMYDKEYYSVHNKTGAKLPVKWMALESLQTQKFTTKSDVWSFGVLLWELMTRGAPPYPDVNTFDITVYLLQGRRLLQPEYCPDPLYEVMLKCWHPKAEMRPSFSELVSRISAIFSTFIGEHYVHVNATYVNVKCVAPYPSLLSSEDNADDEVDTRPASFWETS
Description: Kinase inhibition assay (33P transfer), c-Met. The conditions noted are these: Table 2, kinase inhibition class; read-out: Met-1. An outline of the steps: as §2

The target of the next assay is T7, AKT (Homo sapiens, UniProt Q9Y243).
T7 construct: Kinases are expressed as either kinase domains or full length constructs; made in house
T7 sequence (Q9Y243 whole entry, the tested form may be a part): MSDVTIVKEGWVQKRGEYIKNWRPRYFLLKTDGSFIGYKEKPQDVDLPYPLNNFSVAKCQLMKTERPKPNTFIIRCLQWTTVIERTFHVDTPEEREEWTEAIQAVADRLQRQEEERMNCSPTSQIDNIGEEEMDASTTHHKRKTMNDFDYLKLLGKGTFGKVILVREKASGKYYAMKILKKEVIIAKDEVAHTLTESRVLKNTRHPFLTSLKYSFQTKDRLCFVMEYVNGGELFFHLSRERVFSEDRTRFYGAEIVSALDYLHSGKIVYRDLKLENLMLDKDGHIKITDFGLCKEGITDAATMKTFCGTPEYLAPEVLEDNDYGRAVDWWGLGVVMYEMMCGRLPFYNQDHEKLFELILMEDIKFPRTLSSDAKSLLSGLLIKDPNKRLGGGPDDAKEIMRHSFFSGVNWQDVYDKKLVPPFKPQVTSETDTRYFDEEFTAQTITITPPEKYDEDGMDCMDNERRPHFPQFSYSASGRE
Description: Kinase inhibition assay (33P transfer), AKT. The conditions noted are these: Table 2, kinase inhibition class; read-out: AKT3-1. An outline of the steps: as §1

Another assay addresses T8, IGFR-1 (Homo sapiens, UniProt P08069).
T8 construct: Kinases are expressed as either kinase domains or full length constructs; made in house
Nature of the assay: Kinase inhibition assay (33P transfer), IGFR-1. Conditions: Table 2, kinase inhibition class.

Another assay addresses T9, PDGFRB (Homo sapiens, UniProt P09619).
T9 construct: Kinases are expressed as either kinase domains or full length constructs; made in house
Nature of the assay: Kinase inhibition assay (33P transfer), PDGFRB. The conditions noted are these: read-out: PDGFRB-1.

The target of a further assay is T10, Hck-1 (Homo sapiens, UniProt P08631).
T10 construct: Kinases are expressed as either kinase domains or full length constructs; made in house
Description: Kinase inhibition assay (33P transfer), Hck. Conditions: Table 6, Hck-1 kinase inhibition class.

In another assay the target is T11, FGFR1 (Homo sapiens, UniProt P11362).
T11 construct: Kinases are expressed as either kinase domains or full length constructs; made in house
T11 sequence (P11362 22-822, species assumed): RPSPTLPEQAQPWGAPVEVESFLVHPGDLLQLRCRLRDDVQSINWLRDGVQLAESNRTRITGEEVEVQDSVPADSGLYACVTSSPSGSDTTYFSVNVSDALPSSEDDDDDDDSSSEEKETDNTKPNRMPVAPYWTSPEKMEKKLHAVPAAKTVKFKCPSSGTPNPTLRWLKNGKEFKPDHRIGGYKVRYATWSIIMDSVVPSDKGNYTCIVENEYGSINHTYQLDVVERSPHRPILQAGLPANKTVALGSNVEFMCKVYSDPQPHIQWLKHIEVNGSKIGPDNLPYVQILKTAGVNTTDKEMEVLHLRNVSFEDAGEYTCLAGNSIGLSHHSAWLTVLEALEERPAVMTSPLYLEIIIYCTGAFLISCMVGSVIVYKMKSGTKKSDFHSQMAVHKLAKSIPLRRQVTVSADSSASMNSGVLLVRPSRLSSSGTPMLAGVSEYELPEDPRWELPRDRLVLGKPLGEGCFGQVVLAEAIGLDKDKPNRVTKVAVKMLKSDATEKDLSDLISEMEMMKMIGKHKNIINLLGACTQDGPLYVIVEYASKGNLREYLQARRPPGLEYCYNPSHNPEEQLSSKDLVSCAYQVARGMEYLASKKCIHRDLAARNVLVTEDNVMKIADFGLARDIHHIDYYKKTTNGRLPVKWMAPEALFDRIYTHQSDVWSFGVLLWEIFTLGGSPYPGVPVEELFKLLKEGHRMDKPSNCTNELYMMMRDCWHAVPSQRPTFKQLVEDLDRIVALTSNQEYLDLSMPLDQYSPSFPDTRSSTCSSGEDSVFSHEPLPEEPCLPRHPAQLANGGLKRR
Description: Kinase inhibition assay (33P transfer), FGFR1. Conditions: read-out: FGFR1-1.

Structures are written as SMILES. Where only a bound is given, the exact number is not on record here.

T4 sequence (P35968 20-1356, species assumed): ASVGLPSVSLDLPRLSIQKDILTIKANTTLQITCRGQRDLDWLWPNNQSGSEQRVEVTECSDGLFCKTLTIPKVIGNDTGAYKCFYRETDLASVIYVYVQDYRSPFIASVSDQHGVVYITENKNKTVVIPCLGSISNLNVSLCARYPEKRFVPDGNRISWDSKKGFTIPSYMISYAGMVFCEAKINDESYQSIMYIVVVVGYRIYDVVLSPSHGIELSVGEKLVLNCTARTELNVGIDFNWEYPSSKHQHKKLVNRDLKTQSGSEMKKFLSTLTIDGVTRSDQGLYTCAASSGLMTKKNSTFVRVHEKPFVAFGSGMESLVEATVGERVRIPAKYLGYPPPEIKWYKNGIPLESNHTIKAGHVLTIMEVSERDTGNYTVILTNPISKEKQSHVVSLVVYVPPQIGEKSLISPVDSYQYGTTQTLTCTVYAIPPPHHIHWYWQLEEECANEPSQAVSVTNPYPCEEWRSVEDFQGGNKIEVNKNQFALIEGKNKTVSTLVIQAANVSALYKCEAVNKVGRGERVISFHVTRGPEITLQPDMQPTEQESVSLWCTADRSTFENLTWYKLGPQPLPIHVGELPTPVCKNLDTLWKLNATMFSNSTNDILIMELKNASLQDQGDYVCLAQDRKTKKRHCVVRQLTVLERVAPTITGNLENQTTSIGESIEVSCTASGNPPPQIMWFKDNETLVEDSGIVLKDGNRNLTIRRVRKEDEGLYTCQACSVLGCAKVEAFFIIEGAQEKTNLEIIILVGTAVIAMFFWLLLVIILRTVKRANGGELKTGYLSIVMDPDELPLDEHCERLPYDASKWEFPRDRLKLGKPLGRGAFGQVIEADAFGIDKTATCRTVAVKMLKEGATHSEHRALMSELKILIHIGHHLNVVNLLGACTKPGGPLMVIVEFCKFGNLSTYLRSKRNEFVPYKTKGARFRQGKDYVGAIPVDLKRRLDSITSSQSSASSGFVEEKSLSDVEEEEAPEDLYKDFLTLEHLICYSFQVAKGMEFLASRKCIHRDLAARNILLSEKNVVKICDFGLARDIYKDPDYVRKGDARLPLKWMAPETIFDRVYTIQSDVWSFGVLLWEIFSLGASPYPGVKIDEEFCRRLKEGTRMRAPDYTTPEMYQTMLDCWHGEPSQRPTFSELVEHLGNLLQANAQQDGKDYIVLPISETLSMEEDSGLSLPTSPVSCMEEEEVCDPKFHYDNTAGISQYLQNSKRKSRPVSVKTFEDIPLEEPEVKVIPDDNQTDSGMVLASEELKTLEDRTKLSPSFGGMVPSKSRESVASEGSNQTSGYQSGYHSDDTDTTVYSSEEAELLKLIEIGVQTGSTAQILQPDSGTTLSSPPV
T1 sequence (P06239 whole entry, species assumed, the tested form may be a part): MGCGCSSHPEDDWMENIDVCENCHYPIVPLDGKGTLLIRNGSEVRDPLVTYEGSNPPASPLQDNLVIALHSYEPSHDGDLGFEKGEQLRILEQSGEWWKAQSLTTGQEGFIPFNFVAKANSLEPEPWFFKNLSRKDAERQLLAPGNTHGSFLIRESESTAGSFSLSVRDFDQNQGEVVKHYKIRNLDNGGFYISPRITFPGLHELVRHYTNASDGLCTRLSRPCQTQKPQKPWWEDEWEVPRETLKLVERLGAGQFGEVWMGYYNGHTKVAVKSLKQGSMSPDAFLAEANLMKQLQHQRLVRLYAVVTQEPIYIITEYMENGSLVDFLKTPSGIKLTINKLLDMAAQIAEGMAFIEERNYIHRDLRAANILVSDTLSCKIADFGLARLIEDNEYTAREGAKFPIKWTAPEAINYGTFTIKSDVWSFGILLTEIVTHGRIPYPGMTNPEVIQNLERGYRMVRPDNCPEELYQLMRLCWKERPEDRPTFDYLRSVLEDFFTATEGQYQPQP

Consider `COc1cc(Nc2ncnc(Nc3cc(-c4cccs4)n[nH]3)n2)cc(OC)c1OC` [Compound 318], for which the IC50 on Lck is 0.94 to 5.64 µM; against Lyn, less than 0.94 µM; at Zap-70, more than 10.6 µM; on Kdr it was less than 0.94 µM; on Flt-1 it was less than 0.94 µM; at c-Met it was less than 0.94 µM. The IC50 is 8.23 to 10.6 µM at AKT; less than 0.94 µM against IGFR-1; less than 0.94 µM at PDGFRB; 0.94 to 5.64 µM against Hck-1; 0.94 to 5.64 µM at FGFR1.

As to `COc1cc(Nc2ncnc(N(CC(=O)O)c3ccc4c(c3)OCO4)n2)cc(OC)c1OC` [Compound 319], the IC50 at Lck, against Lyn, on Zap-70, on Kdr, on Flt-1 and on c-Met was more than 9.88 µM each time. In addition, the IC50 at AKT, against IGFR-1, at PDGFRB, against Hck-1 and at FGFR1 was more than 9.88 µM each time.

For the compound `COc1ccc(Nc2ncnc(N(CC(=O)O)c3ccc4c(c3)OCO4)n2)cc1OC` [Compound 320], the IC50 is 5.64 to 8.23 µM on Lck; more than 10.6 µM against Lyn; 8.23 to 10.6 µM on Zap-70; 5.64 to 8.23 µM at Kdr; more than 10.6 µM at Flt-1; 5.64 to 8.23 µM on c-Met. Further, the IC50 at AKT, against IGFR-1, on PDGFRB, at Hck-1 and on FGFR1 was more than 10.6 µM in each case.

For the compound `COc1cc(Nc2ncnc(-n3cc(C)c4ccccc43)n2)cc(OC)c1OC` [Compound 323], the IC50 on Lck is 8.94 to 11.5 µM; against Lyn, more than 11.5 µM; at Zap-70, 8.94 to 11.5 µM; at Kdr, less than 1.02 µM; at Flt-1 it was 6.13 to 8.94 µM; on c-Met, 8.94 to 11.5 µM. Also, the IC50 on AKT is more than 11.5 µM; against IGFR-1 it was more than 11.5 µM; at PDGFRB it was less than 1.02 µM; on Hck-1, more than 11.5 µM; on FGFR1, more than 11.5 µM.

As for `COc1cc(Nc2ncnc(-n3c(N)nc4ccccc43)n2)ccc1OCCn1ccnn1` [Compound 324], the IC50 is more than 10.1 µM on Lck; more than 10.1 µM against Lyn; more than 10.1 µM at Zap-70; less than 0.9 µM on Kdr; less than 0.9 µM at Flt-1; more than 10.1 µM on c-Met. Also, the IC50 is more than 10.1 µM at AKT; less than 0.9 µM against IGFR-1; more than 10.1 µM on PDGFRB; more than 10.1 µM against Hck-1; less than 0.9 µM on FGFR1.

As for `COc1cc(Nc2ncnc(-n3c(=O)[nH]c4ccccc43)n2)cc(OC)c1OC` [Compound 325], the IC50 on Lck is more than 11.4 µM; at Lyn, 8.87 to 11.4 µM; on Zap-70, more than 11.4 µM; on Kdr, less than 1.01 µM; on Flt-1, less than 1.01 µM; at c-Met it was more than 11.4 µM. Further, the IC50 at AKT is more than 11.4 µM; against IGFR-1 it was more than 11.4 µM; on PDGFRB it was less than 1.01 µM; at Hck-1 it was more than 11.4 µM; at FGFR1, more than 11.4 µM.

Turning to `COCCOc1ccc(Nc2ncnc(Nc3cc(-c4ccco4)n[nH]3)n2)cc1OCCOC` [Compound 328], the IC50 on Lck was 0.856 to 5.13 µM; at Lyn, 0.856 to 5.13 µM; on Zap-70, more than 9.63 µM; on Kdr it was less than 0.856 µM; against Flt-1, less than 0.856 µM; at c-Met, less than 0.856 µM. Further, the IC50 on AKT is 5.13 to 7.49 µM; at IGFR-1, less than 0.856 µM; at PDGFRB it was 0.856 to 5.13 µM; against Hck-1, 5.13 to 7.49 µM; at FGFR1 it was 0.856 to 5.13 µM.

These data come from US7074789B2, “Kinase inhibitors” (Amgen Inc., priority 1999, dated 2006).
